Experimental data as given in ChEMBL document CHEMBL1201862, “PubChem BioAssay data set” (2004).
Blank lines part the entries; values can stand above or below the compound they belong to. The source made the active and inactive calls.

What was measured:
Protein Tat = biological target: T1, Protein Tat (Human immunodeficiency virus type 1 group M subtype B (isolate HXB2)(HIV-1), UniProt P04608); assay type: functional;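 note: tat binding to TAR RNA read out by fluorescence polarization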
T1 sequence (P04608 whole entry): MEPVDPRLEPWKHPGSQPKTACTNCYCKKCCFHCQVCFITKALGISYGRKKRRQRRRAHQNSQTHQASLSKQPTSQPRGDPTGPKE

[1] = reduced cellular PGC1a acetyl-lysine signal – cell-based, cherry-picked samples, dose response (AID 720514); assay type: functional;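 note: potency may reflect raised or lowered acetylation signal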
[2] = general mammalian cell viability loss – inhibitor set, cherry-pick, set 2, cytotoxicity control for miR-122 modulator project, dose response (AID 720697); assay type: functional, cell-based
[3] = activation of miR-122 Renilla sensor silencing – cell-based, Huh7 psiCHECK-miR122, Renilla luciferase, cherry-picked, dose response (AID 651956); assay type: functional;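 note: huh7 hepatoma cells stably carrying a psiCHECK-2 miR-122 sensor plasmid; renilla luciferase signal reporting endogenous miR-122 activity after 48 h compound exposure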
[4] = blockers of bursicon-stimulated LGR2 cAMP reporter – cell-based, HEK293, CRE-luciferase reporter, cherry pick, set 2, dose response (AID 743343); assay type: functional;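 note: transfected cells were stimulated with diluted bursicon conditioned medium after compound addition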
[5] = biological target: T2, Rac GTPase-activating protein 1 (Homo sapiens, UniProt Q9H0H5); experiment: blockers of MgcRacGAP-driven Rac1 GTP hydrolysis – biochemical, ADP Hunter fluorescence, primary and confirmatory, confirmation (AID 624330); assay type: functional
T2 sequence (Q9H0H5 whole entry): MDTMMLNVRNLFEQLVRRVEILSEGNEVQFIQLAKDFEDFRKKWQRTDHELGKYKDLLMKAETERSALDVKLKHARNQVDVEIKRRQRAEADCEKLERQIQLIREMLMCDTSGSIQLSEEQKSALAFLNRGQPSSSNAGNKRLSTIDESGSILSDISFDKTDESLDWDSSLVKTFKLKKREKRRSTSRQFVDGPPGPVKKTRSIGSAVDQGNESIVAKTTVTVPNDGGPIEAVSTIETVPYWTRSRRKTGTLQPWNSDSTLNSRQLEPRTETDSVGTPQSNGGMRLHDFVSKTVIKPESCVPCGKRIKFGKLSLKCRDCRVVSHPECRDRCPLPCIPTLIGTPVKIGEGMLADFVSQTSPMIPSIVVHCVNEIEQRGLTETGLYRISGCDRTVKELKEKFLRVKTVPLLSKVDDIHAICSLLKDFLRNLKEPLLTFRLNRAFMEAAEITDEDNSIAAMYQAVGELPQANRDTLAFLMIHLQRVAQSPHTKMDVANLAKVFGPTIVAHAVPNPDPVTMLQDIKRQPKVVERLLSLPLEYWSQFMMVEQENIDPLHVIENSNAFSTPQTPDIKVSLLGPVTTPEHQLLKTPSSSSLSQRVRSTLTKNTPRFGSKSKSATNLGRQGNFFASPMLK

[6] = viability loss in HEK293 cells – cell-based, plate reader, cherry-picked samples, cytotoxicity control, dose response (AID 743446); assay type: functional
[7] = viability loss in HeLa cells – cytotoxicity control for MgcRacGAP inhibitor project, dose response (AID 624300); assay type: functional
Paired box protein Pax-8 = Paired box protein Pax-8 (Homo sapiens, UniProt Q06710); experiment: PAX8 transcriptional activity inhibition in RMG-I – RMG-I cells, luciferase, cherry-pick, dose response (AID 687027); assay type: functional, cell-based;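 note: luciferase reporter driven by Pax8 target thyroperoxidase promoter measured by SteadyGlo luminescence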
[8] = non-specific 3'UTR reporter inhibition in Clone20-Shn3RL – cell-based, Renilla luciferase, cherry-picked, counter-screen for Shn3 inhibitor project, dose response (AID 624133); assay type: functional
[9] = loss of viability in HepG2 cells – cell-based, CellTiter-Glo, cherry-picked, cytotoxicity control for Shn3 inhibitor project, dose response (AID 624134); assay type: functional
[10] = A549 cell cytotoxicity, dose response, cytotoxicity control, plate reader, cherry-pick, antagonist series (AID 743412); assay type: functional, cell-based
[11] = Fluorescence-based cell-based high throughput dose response assay for inhibitors of the interaction of nucleotide-binding oligomerization domain containing 2 (NOD2) and the receptor-interacting serine-threonine kinase 2 (RIPK2).; assay type: functional, Homo sapiens; conditions: Homo sapiens
[12] = reduction of Shn3 3'UTR-driven luciferase in osteoblasts – cell-based, Clone20 osteoblasts, firefly luciferase, cherry-picked, dose response (AID 624132); assay type: functional;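 note: firefly luciferase luminescence from reporter carrying the Shn3 3'UTR in osteoblasts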
[13] = blockade of melanocortin 4 receptor signaling – cell-based, plate reader, cherry pick, counter-screen for LGR2 antagonist project, dose response (AID 743444); assay type: functional;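 note: transfected HEK 293 cells stimulated with alpha-MSH peptide; potency of inhibitors of the alpha-MSH evoked signal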
[14] = toxicity toward HepG2 liver cells – cell-based, plate reader, cherry-pick, antagonist series, cytotoxicity control, dose response (AID 743416); assay type: functional

Paired box protein Pax-8, sequence (Q06710 whole entry): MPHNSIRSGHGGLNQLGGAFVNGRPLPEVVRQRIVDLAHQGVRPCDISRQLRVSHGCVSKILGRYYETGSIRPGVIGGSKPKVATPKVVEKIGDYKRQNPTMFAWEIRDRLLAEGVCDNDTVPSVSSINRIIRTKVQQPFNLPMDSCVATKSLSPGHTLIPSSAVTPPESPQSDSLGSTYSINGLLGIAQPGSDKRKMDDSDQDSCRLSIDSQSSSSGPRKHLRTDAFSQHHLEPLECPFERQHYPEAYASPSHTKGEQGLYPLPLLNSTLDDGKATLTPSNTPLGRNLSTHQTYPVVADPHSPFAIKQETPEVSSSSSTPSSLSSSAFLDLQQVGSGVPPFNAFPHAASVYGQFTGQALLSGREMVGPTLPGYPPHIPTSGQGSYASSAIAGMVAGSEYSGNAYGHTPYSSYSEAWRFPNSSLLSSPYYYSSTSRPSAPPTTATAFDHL

IC50 (Protein Tat): 8440 nM (inconclusive)
SMILES: [O-][n+]1c2c([n+]([O-])c3cc(Br)ccc31)CCC2

IC50 (Protein Tat): > 100000 nM (active)
SMILES: CCOc1ccc2[nH]c(=O)c(CN(Cc3ccco3)C(=O)c3ccc(Br)cc3)cc2c1

SMILES: O=C(CSc1nc2cc(Cl)ccc2s1)NCC1CCCO1 (centres undefined)
AC50 [1]: 30500 nM (active)

SMILES: C[C@@H]1CCCCO[C@H](CN(C)CC2CCCCC2)[C@H](C)CN([C@H](C)CO)C(=O)c2cc(NC(=O)Nc3ccc4c(c3)OCO4)ccc2O1
AC50 [2]: 4390 nM (active) | AC50 [3]: 16200 nM (active)

SMILES: COc1cccc(CN2C[C@@H]3N[C@H](C2)[C@@H]3c2ccc(-c3ccccc3OC)cc2)c1
AC50 [1]: 28500 nM (active)

SMILES: CCC1CN2CCc3cc(OC)c(OC)cc3C2CC1CC1NCCc2c1[nH]c1ccc(O)cc21 (centres undefined)
AC50 [4]: 219 nM (active) | IC50 [5]: 70200 nM (active) | AC50 [6]: 153 nM (active) | CC50 [7]: 1610 nM (active) | AC50 (Paired box protein Pax-8): < 260 nM (active) | AC50 [8]: 658 nM (active) | AC50 [1]: 471 nM (active) | AC50 [9]: 18000 nM (active) | AC50 [10]: 75 nM (active) | IC50 [11]: 49800 nM (inactive) | AC50 [12]: < 260 nM (active) | AC50 [13]: 209 nM (active) | AC50 [14]: 601 nM (active)
